Reference: patent US11969428B2, “Methods and pharmaceutical compositions for treating lymphoid malignancy” (priority 2011, dated 2024)

Key:
Assay in all cases: Ambit KinomeScan screening
Type in all cases: binding
Settings in all cases: CAL-130 10 μM
FLT3(K663Q) = molecular target: T1, FLT3(K663Q) (Homo sapiens, UniProt P36888, K663Q)
T1 construct: unspecified tag; purchased Ambit (KinomeScan screening service)
Outline: (§1)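 Each kinase, carrying a tag, was challenged to bind immobilized bait while CAL-130 was present (10 μM). Reported numbers are percent of the control signal, lower indicating tighter compound binding.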

DAPK2 = molecular target: T2, DAPK2 (Homo sapiens, UniProt Q9UIK4)
T2 construct: purchased Ambit (KinomeScan screening service)
Outline: as §1

SgK085 = molecular target: T3, SgK085 (Homo sapiens, UniProt Q86YV6)
T3 construct: tag, kind not specified; purchased Ambit (KinomeScan screening service)
Outline: as §1

MLK3 = molecular target: T4, MLK3 (Homo sapiens, UniProt Q16584)
T4 construct: unspecified tag ('tagged kinases'); purchased Ambit (KinomeScan screening)
Outline: as §1

EGFR(S752-I759DEL) = molecular target: T5, EGFR(S752-I759DEL) (Homo sapiens, UniProt P00533, DEL752-759)
T5 construct: unspecified tag; purchased Ambit (KinomeScan screening service)
Outline: as §1

IKK-α = molecular target: T6, IKK-α (Homo sapiens, UniProt O15111)
T6 construct: Ambit (KinomeScan screening)
Outline: as §1

CSF1R = molecular target: T7, CSF1R (Homo sapiens, UniProt P07333)
T7 construct: purchased Ambit (KinomeScan screening service)
Outline: as §1

GRK7 = molecular target: T8, GRK7 (Homo sapiens, UniProt Q8WTQ7)
T8 construct: unspecified tag ('tagged kinases'); purchased Ambit (KinomeScan screening service)
Outline: as §1

EPHA4 = molecular target: T9, EPHA4 (Homo sapiens, UniProt P54764)
T9 construct: purchased Ambit (KinomeScan screening service)
Outline: as §1

PYK2 = molecular target: T10, PYK2 (Homo sapiens, UniProt Q14289)
T10 construct: tag (kind not specified); purchased Ambit (KinomeScan screening service)
Outline: as §1

PCTK3 = molecular target: T11, PCTK3 (Homo sapiens, UniProt Q07002)
T11 construct: unspecified tag ('tagged kinases'); purchased Ambit (KinomeScan screening)
Outline: as §1

PLK4 = molecular target: T12, PLK4 (Homo sapiens, UniProt O00444)
T12 construct: purchased Ambit (KinomeScan screening service)
Outline: as §1

TXK = molecular target: T13, TXK (Homo sapiens, UniProt P42681)
T13 construct: tag, kind not specified; purchased Ambit (KinomeScan screening service)
Outline: as §1

[1] = molecular target: T14, EGFR(L747-S752DEL, P753S) (Homo sapiens, UniProt P00533, DEL747-752/P753S)
T14 construct: unspecified tag; purchased Ambit (KinomeScan screening service)
Outline: as §1

WEE2 = molecular target: T15, WEE2 (Homo sapiens, UniProt P0C1S8)
T15 construct: purchased Ambit (KinomeScan screening service)
Outline: as §1

OSR1 = molecular target: T16, OSR1 (Homo sapiens, UniProt O95747)
T16 construct: purchased Ambit (KinomeScan screening service)
Outline: as §1

YSK4 = molecular target: T17, YSK4 (Homo sapiens, UniProt Q56UN5)
T17 construct: purchased Ambit (KinomeScan screening service)
Outline: as §1

TYRO3 = molecular target: T18, TYRO3 (Homo sapiens, UniProt Q06418)
T18 construct: tag, kind not specified; purchased Ambit (KinomeScan screening service)
Outline: as §1

RIOK3 = molecular target: T19, RIOK3 (Homo sapiens, UniProt O14730)
T19 construct: unspecified tag (tagged kinase); purchased Ambit (KinomeScan screening)
Outline: as §1

EPHA6 = molecular target: T20, EPHA6 (Homo sapiens, UniProt Q9UF33)
T20 construct: purchased Ambit (KinomeScan screening service)
Outline: as §1

GRK1 = molecular target: T21, GRK1 (Homo sapiens, UniProt Q15835)
T21 construct: unspecified tag ('tagged kinases'); purchased Ambit (KinomeScan screening service)
Outline: as §1

ACVR2A = molecular target: T22, ACVR2A (Homo sapiens, UniProt P27037)
T22 construct: purchased Ambit (KinomeScan screening)
Outline: as §1

DDR1 = molecular target: T23, DDR1 (Homo sapiens, UniProt Q08345)
T23 construct: unspecified tag ("tagged kinases"); purchased Ambit (KinomeScan screening service)
Outline: as §1

ABL1(H396P) = molecular target: T24, ABL1(H396P) (Homo sapiens, UniProt P00519, H396P)
T24 construct: unspecified tag ("tagged kinases"); purchased Ambit (KinomeScan screening)
Outline: as §1

BMX = molecular target: T25, BMX (Homo sapiens, UniProt P51813)
T25 construct: unspecified tag ("tagged kinases"); purchased Ambit (KinomeScan screening)
Outline: as §1

LTK = molecular target: T26, LTK (Homo sapiens, UniProt P29376)
T26 construct: unspecified tag ('tagged kinases'); purchased Ambit (KinomeScan screening service)
Outline: as §1

RIPK2 = molecular target: T27, RIPK2 (Homo sapiens, UniProt O43353)
T27 construct: unspecified tag (tagged kinase); purchased Ambit (KinomeScan screening)
Outline: as §1

PDGFRB = molecular target: T28, PDGFRB (Homo sapiens, UniProt P09619)
T28 construct: unspecified tag ('tagged kinases'); purchased Ambit (KinomeScan screening)
Outline: as §1

ULK2 = molecular target: T29, ULK2 (Homo sapiens, UniProt Q8IYT8)
T29 construct: tag, kind not specified; purchased Ambit (KinomeScan screening service)
Outline: as §1

RPS6KA3 = molecular target: T30, RPS6KA3 (Homo sapiens, UniProt P51812)
T30 construct: unspecified tag (tagged kinase); purchased Ambit (KinomeScan screening)
Outline: as §1

CHEK2 = molecular target: T31, CHEK2 (Homo sapiens, UniProt O96017)
T31 construct: purchased Ambit (KinomeScan screening service)
Outline: as §1

ULK3 = molecular target: T32, ULK3 (Homo sapiens, UniProt Q6PHR2)
T32 construct: tag, kind not specified; purchased Ambit (KinomeScan screening service)
Outline: as §1

TLK2 = molecular target: T33, TLK2 (Homo sapiens, UniProt Q86UE8)
T33 construct: unspecified tag (tagged kinase); purchased Ambit (KinomeScan screening)
Outline: as §1

PCTK2 = molecular target: T34, PCTK2 (Homo sapiens, UniProt Q00537)
T34 construct: unspecified tag ('tagged kinases'); purchased Ambit (KinomeScan screening)
Outline: as §1

JAK1(JH1domain) = molecular target: T35, JAK1(JH1domain) (Homo sapiens, UniProt P23458)
T35 construct: JAK1(JH1domain); purchased Ambit (KinomeScan screening)
Outline: as §1

Measured: Percent of Control Binding

T15 sequence (P0C1S8 whole entry): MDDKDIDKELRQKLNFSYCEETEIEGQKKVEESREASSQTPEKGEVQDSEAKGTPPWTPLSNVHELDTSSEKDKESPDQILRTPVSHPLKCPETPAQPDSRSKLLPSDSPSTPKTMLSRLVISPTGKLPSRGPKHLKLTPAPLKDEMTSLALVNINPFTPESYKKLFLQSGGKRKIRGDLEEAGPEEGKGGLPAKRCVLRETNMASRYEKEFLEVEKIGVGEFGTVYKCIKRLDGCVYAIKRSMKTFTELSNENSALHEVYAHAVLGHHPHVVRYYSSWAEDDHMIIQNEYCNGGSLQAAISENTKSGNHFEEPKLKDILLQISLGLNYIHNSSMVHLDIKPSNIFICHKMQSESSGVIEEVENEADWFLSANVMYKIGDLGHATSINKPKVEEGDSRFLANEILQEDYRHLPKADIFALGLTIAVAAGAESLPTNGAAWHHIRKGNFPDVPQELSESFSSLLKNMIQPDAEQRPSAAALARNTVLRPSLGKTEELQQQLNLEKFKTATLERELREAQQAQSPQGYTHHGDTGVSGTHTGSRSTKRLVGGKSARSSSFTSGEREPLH
T6 sequence (O15111 whole entry): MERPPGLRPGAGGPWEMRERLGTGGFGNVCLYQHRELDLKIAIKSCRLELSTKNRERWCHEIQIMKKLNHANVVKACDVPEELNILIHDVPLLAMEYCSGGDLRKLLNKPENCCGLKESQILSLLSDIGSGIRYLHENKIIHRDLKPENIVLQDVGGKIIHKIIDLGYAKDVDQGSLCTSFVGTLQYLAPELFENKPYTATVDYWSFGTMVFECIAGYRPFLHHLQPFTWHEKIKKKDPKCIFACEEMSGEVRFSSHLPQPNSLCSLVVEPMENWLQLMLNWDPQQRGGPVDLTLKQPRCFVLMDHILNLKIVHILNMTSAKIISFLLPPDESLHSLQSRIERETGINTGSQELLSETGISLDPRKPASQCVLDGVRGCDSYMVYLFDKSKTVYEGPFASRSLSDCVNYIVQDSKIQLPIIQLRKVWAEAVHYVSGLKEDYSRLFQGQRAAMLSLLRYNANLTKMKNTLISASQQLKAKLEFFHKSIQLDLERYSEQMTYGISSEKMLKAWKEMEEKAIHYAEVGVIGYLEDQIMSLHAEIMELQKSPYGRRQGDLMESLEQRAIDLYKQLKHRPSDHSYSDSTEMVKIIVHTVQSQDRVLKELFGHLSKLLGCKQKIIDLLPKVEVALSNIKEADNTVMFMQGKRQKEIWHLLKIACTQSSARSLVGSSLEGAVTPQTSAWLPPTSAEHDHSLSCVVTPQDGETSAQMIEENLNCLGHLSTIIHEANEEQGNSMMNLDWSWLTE
T32 sequence (Q6PHR2 whole entry): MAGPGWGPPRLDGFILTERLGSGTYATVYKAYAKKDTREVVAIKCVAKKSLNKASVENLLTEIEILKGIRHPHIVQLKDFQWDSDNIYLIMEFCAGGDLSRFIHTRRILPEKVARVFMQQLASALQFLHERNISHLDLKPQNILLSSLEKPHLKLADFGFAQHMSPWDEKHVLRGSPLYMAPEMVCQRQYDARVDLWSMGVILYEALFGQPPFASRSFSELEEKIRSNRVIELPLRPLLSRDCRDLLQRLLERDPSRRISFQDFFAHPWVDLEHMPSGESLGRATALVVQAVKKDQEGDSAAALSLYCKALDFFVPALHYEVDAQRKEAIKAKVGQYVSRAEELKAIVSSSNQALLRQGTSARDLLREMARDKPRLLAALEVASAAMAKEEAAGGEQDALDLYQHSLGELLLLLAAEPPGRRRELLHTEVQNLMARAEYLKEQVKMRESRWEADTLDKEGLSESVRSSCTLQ
T27 sequence (O43353 whole entry): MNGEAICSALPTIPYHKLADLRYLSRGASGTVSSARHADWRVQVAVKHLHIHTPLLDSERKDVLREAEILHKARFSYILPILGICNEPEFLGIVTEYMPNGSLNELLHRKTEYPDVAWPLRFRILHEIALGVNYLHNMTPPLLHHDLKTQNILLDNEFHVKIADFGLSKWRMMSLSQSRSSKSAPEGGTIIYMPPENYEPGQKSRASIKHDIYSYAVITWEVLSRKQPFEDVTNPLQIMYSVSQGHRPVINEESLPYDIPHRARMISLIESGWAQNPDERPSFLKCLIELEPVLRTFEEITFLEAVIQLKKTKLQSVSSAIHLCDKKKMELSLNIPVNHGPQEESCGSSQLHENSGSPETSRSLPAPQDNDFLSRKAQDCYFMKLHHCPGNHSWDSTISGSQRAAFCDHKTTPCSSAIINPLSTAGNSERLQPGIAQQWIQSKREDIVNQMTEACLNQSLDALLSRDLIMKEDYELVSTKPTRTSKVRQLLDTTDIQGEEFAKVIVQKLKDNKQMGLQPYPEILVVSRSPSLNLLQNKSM
T20 sequence (Q9UF33 23-1036): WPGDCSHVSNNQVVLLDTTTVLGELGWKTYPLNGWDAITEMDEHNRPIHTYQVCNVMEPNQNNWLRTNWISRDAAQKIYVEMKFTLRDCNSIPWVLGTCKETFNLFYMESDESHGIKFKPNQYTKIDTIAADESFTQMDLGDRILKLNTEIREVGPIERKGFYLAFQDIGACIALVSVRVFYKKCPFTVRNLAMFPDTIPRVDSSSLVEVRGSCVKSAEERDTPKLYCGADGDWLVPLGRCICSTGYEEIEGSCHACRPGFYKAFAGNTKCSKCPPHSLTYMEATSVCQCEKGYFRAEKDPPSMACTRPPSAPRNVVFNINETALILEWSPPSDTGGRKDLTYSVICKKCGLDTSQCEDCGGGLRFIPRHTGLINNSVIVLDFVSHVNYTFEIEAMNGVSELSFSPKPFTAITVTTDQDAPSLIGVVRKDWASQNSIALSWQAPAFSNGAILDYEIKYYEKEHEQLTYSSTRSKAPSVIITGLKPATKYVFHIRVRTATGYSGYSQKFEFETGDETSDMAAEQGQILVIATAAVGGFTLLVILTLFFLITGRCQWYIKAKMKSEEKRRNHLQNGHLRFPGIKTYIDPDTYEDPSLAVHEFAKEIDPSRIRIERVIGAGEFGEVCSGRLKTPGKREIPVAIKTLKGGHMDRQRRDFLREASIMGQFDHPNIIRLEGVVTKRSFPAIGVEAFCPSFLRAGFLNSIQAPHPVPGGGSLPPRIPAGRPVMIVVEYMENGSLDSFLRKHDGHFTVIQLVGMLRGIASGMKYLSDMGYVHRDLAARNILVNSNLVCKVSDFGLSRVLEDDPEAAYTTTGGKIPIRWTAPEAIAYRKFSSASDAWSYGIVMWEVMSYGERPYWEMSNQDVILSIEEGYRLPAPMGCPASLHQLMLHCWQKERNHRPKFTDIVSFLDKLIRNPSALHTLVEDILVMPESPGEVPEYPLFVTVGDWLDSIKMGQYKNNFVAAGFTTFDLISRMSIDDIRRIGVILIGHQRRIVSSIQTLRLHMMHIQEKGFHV
T18 sequence (Q06418 41-890): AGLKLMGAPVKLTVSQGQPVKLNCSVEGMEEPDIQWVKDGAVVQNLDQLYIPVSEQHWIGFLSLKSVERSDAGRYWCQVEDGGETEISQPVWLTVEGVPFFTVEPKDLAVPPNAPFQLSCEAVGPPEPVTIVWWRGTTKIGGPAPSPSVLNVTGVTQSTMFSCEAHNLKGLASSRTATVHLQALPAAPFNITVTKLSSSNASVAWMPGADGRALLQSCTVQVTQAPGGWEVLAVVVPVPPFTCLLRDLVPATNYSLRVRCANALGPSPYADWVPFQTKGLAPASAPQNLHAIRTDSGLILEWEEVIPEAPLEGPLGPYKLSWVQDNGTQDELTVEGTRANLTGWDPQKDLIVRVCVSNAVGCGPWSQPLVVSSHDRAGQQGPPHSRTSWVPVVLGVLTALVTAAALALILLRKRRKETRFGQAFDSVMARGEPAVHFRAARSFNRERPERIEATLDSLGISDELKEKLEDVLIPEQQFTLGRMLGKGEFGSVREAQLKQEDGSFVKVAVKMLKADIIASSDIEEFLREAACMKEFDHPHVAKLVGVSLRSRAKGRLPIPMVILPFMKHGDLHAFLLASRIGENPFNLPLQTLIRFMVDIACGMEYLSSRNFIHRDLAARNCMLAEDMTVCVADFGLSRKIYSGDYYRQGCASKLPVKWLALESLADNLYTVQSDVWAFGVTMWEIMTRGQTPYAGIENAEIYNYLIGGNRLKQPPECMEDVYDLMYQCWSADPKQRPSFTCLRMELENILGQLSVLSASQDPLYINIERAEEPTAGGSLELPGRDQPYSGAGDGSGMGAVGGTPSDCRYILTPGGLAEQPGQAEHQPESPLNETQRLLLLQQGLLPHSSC
T3 sequence (Q86YV6 whole entry): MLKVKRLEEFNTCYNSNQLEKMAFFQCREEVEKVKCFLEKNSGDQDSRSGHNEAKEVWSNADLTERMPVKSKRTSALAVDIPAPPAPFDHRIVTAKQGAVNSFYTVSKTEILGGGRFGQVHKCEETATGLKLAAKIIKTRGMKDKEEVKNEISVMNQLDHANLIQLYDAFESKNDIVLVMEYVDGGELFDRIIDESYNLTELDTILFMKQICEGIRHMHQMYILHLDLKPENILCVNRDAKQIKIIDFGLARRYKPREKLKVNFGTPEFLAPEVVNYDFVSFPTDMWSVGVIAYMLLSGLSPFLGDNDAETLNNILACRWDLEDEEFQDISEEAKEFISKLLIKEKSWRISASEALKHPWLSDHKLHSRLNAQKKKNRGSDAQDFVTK
T11 sequence (Q07002 whole entry): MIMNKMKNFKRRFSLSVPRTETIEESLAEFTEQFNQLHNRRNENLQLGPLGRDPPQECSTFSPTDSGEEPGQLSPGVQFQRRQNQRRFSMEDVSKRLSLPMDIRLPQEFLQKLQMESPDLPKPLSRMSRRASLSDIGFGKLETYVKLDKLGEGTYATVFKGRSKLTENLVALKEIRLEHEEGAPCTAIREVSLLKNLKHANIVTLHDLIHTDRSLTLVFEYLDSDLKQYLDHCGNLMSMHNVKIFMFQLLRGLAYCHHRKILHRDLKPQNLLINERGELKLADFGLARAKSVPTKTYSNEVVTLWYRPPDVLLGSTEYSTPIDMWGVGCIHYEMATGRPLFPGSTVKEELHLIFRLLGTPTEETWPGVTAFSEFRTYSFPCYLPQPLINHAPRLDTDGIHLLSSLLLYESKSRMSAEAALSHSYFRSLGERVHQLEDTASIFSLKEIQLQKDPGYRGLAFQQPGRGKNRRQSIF

Cc1ccccc1-n1c(C(C)Nc2nc(N)nc3nc[nH]c23)nc2cccc(C)c2c1=O (centres unmarked) [CAL-130]
100%: all assays above
